Values after ≈ are worked out from the molar mass of the structure shown.

Consider nine compounds from patent US12448475B2, “Drug delivery compositions and applications thereof” (The University of North Carolina at Chapel Hill, priority 2019, dated 2025).

The nature of data set [1]: Solubilization of poorly soluble drugs in PMeOx-PcBOx polymeric micelles. The note with it: polymer 10 mg/ml. The text has this: (§1) (P2). The molecules examined belonged to different classes including transforming growth factor β (TGF-β) receptor inhibitors (LY2109761, GW788388 and LY364947), protein synthesis inhibitors (bruceantin), toll-like receptor (TLR) 7 agonist (imiquimod), phosphatidylinositol 3-kinase (PI3K) inhibitors (wortmannin and pictilisib (GDC-0941)), microtubule inhibitor (paclitaxel), and topoisomerase inhibitors (Aclacinomycin A and SN-38). […] Drugs were screened at various ratios, beginning at 1:10 (drug:polymer), and increased the ratio until maximal solubility was obtained.

The nature of data set [2]: Solubilization of poorly soluble drugs in P2 reference polymer micelles.
From the text: as §1

Data set [3] is described as follows: DLS size distribution of drug-loaded PMeOx-PcBOx micelle formulations. Type of data set: physicochemical. The note with it: drug-loaded PMeOx-PcBOx micelle formulation.
The nature of data set [4]: Loading capacity of API-loaded micelles (thin film hydration, HPLC), Example 8. Conditions: PcBOx triblock (PMeOx-PcBOx-PMeOx) micelles, polymer 10 mg/ml. It counts as physicochemical. The method, then:
Drug-encapsulated polymeric nanoparticle formulations were prepared by the thin film hydration method. For resiquimod, imiquimod, and RXDX-105, stock solutions of PMeOx-PcBOx-PMeOx and drugs in chloroform:methanol (9:1) solution were mixed together at the pre-determined ratios (8:10 drug to polymer w/w ratio (resiquimod), 2:10 w/w ratio (imiquimod), 4:10 w/w ratio (RXDX-105)). The organic solvent was evaporated at 58° C. under a stream of inert gas to form a thin-film of drug-polymer homogenous mixture. Next, the thin films were hydrated with saline and then incubated for 5-10 min to form drug-encapsulated polymeric micelle solutions. All samples were prepared with 1 mg of polymer and hydrated with 100 uL of saline. The formed micelle solutions were centrifuged at 10,000 rpm for 3 minutes (Sorvall Legend Micro 21R Centrifuge, Thermo Scientific) to remove any precipitate of unloaded drug or polymer. The final concentration of drugs in PMeOx-PcBOx-PMeOx micelles was analyzed by HPLC (Agilent Technologies 1200 series) using a mixture of acetonitrile/water (70%/30% v/v for Resiquimod and imiquimod; 50%/50% v/v for RXDX-105) as the mobile phase. […] Drug concentration was quantified against free drug calibration curves. Particle z-average effective diameter and polydispersity index (PDI) were measured by dynamic light scattering (DLS) (Nano-ZS, Malvern Instruments, UK). […]

Data set [5] can be described thus: DLS size distribution of API-loaded micelles, Example 8. The note with it: PcBOx triblock (PMeOx-PcBOx-PMeOx) micelles. Type of data set: physicochemical. On the procedure: Drug-encapsulated polymeric nanoparticle formulations were prepared by the thin film hydration method. For resiquimod, imiquimod, and RXDX-105, stock solutions of PMeOx-PcBOx-PMeOx and drugs in chloroform:methanol (9:1) solution were mixed together at the pre-determined ratios (8:10 drug to polymer w/w ratio (resiquimod), 2:10 w/w ratio (imiquimod), 4:10 w/w ratio (RXDX-105)). The organic solvent was evaporated at 58° C. under a stream of inert gas to form a thin-film of drug-polymer homogenous mixture. Next, the thin films were hydrated with saline and then incubated for 5-10 min to form drug-encapsulated polymeric micelle solutions. All samples were prepared with 1 mg of polymer and hydrated with 100 uL of saline. The formed micelle solutions were centrifuged at 10,000 rpm for 3 minutes (Sorvall Legend Micro 21R Centrifuge, Thermo Scientific) to remove any precipitate of unloaded drug or polymer. The final concentration of drugs in PMeOx-PcBOx-PMeOx micelles was analyzed by HPLC (Agilent Technologies 1200 series) using a mixture of acetonitrile/water (70%/30% v/v for Resiquimod and imiquimod; 50%/50% v/v for RXDX-105) as the mobile phase. The samples were diluted with mobile phase to final concentration of ˜100 μg/mL of drugs and injected (10 μL) into the HPLC system. The flow rate was 1.0 mL/min, and column temperature was 40° C. Detection wavelength was 254 nm. Drug concentration was quantified against free drug calibration curves. Particle z-average effective diameter and polydispersity index (PDI) were measured by dynamic light scattering (DLS) (Nano-ZS, Malvern Instruments, UK).

A short description of data set [6]: Release profile of encapsulated drugs from polymeric micelles. Type of data set: physicochemical. The note with it: from P2, after 24 hours, 10:1 polymer:drug feeding ratio. The method, then: The release profile of encapsulated drugs (Paclitaxel and Bruceantin) in PMeOx-PcBOx was investigated. Both Paclitaxel and Bruceantin were continuously released from PMeOx-PcBOx nanoparticle, with over 80% of drugs being released at 24 hour time point (FIG. 5C). The release rates were similar for Bruceantin in both of the polymers. […] After 24 hours, most of the PTX was released in PcBOx whereas not even 50% was released from P2. This kind of release data is consistent with previously published data at this low (10:1) polymer:drug feeding ratio. Both paclitaxel and Bruceantin formulation in PMeOx-PcBOx were proven stable for 8 days at 4° C. as the drug loading and size distribution were monitored (FIGS. 5E and 5F).

In the case of `c1ccc(-c2nn3c(c2-c2ccnc4cc(OCCN5CCOCC5)ccc24)CCC3)nc1` [LY2109761], in data set [1], the “LC (maximum loading capacity)” value worked out at 24.7%, the “LE (loading efficiency)” value is given as 82% and the “maximal solubilized drug concentration” value is approximately 3.28 mg/mL. In data set [2] (P2 micelles, polymer 10 mg/ml), the “LC (maximum loading capacity)” value is recorded as 14.0%, the “LE (loading efficiency)” value was determined as 78% and the “maximal solubilized drug concentration” value turned out to be 1.5 mg/mL. In data set [3], the Dv10 is listed as 15.5 nm, the Dv50 amounted to 21.5 nm, the Dv90 came to 34.8 nm and the PDI came to 0.4. Moreover, the “size in DLS measurement” value in data set [3] amounted to 50 nm.

With `O=C(NC1CCOCC1)c1ccc(-c2cc(-c3c[nH]nc3-c3ccccn3)ccn2)cc1` [GW788388], in data set [1], the “LC (maximum loading capacity)” value amounted to 0.2%.

On to `CCc1c2c(nc3ccc(O)cc13)-c1cc3c(c(=O)n1C2)COC(=O)[C@]3(O)CC` [SN-38], for which, in data set [1], the “LC (maximum loading capacity)” value was “undetectable”.

In the case of `CS(=O)(=O)N1CCN(Cc2cc3nc(-c4cccc5[nH]ncc45)nc(N4CCOCC4)c3s2)CC1` [GDC-0941, pictilisib], the “LC (maximum loading capacity)” value in data set [1] is recorded as 4.3%. The “solubilization (in words)” value in data set [2] is listed as “practically insoluble”.

With `CC(C)Cn1cnc2c(N)nc3ccccc3c21` [Imiquimod, imiquimod], in data set [1], the “LC (maximum loading capacity)” value is given as “undetectable”. Besides, the “solubilization (in words)” value in data set [2] was “practically insoluble”. In addition, the “LC (%)” value in data set [4] is on record as 14.1%. In data set [5], the Deff was found to be 160 nm and the PDI was 0.18.

With `CC[C@@]1(O)C[C@H](O[C@H]2C[C@H](N(C)C)[C@H](O[C@H]3C[C@H](O)[C@H](O[C@H]4CCC(=O)[C@H](C)O4)[C@H](C)O3)[C@H](C)O2)c2c(cc3c(c2O)C(=O)c2c(O)cccc2C3=O)[C@H]1C(=O)OC` [aclacinomycin A, Aclacinomycin A], the “LC (maximum loading capacity)” value in data set [1] is listed as 6.8%.

`c1ccc(-c2[nH]ncc2-c2ccnc3ccccc23)nc1` [LY364947]: the “LC (maximum loading capacity)” value in data set [1] worked out at 0.3%.

`COc1cc2ncnc(Oc3cccc(NC(=O)Nc4cc(C(C)(C)C(F)(F)F)on4)c3)c2cc1OC` [RXDX-105]: the “LC (%)” value in data set [4] was determined as 24.1%. For the same compound, in data set [5], the Deff was found to be 112 nm and the PDI came out at 0.30.

Regarding `CC(=O)O[C@H]1C(=O)[C@@]2(C)[C@H]([C@H](OC(=O)c3ccccc3)[C@]3(O)C[C@H](OC(=O)[C@H](O)[C@@H](NC(=O)c4ccccc4)c4ccccc4)C(C)=C1C3(C)C)[C@]1(OC(C)=O)CO[C@@H]1C[C@@H]2O` [paclitaxel], the “LC (maximum loading capacity)” value in data set [1] came out at 6.3%. Further, in data set [2] (P2 micelles, polymer 10 mg/ml), the “LC (maximum loading capacity)” value was 41% and the “LE (loading efficiency)” value was determined as 86%. For the same compound, the concentration in solution in data set [2] (aqueous with cosolvent or surfactant or cyclodextrin) (solubility) came to 6890 µg/mL (≈ 8.07 mM). Besides, in data set [3], the Dv10 was 23.3 nm, the Dv50 came to 34.6 nm, the Dv90 was 80.9 nm and the PDI was found to be 0.298. Besides, the “size in DLS measurement” value in data set [3] is recorded as 85 nm. In data set [6], the drug released is given as less than 50%.
